4 compounds from patent US20260167829A1, “USES OF DIAZIRINES” (Nanyang Technological University, priority 2022, published 2026) can be followed below.

Entries after “also recorded” stand apart in the source; their conditions may differ.

Series [1] in a line: UV/VIS spectroscopy, molar absorption. The format is physicochemical. On the procedure: The solution is then added to UV/VIS quartz tube with a path length of 1 cm. The background is normalized to chloroform. The samples are tested in the wavelength range of 200 to 800 nm at a medium scan rate of 2 nm, and a slit width of 0.5 nm. Data are collected in absorbance values (A) against wavelength (nm).

Series [2] can be described thus: Stability of PEGDA/PTHT mixtures with photoinitiator under indoor light. The class given is physicochemical. The following applies: PEGDA+PTHT 2:1 binary mixture, 1 mol % initiator, no solvent. How it is done:
Polyethylene glycol diacrylate (Mw˜575 Da), referred to as “PEGDA” further in text is used in all the experiments. PEGDA/PTHT samples are prepared by magnetic stirring of PEGDA and PTHT polymer blend (2:1 molar ratio) with diazirine photoinitiators (1 mol % DzOH or 1 mol % CG relative to the total number of mols of PEGDA in each sample). Samples with standard TPO photoinitiator (1 mol %) are used as controls. The mixing of compounds (PEGDA+PTHT) in binary mixture with photoinitiators (DzOH, CG and TPO) is completed without any solvent.

In series [3] the test system is 3T3 fibroblasts or HeLa cell lines. Briefly: In vitro biocompatibility Alamar Blue assay. The settings on record: 48 hours of incubation; all concentrations (0.01-1 mM). The format is cell-based. On the procedure:
Cells seeded in wells (5 replicates for each group) with 100 μl DMEM media (10% FBS, 1% antibiotic). Incubated for 24 and 48 h, in a 96-well plate, 10000 cells/well, using 3T3 fibroblasts or HeLa cell lines. After 24 h, DMEM media replaced with 100 μl DMEM with dissolved test compounds (Test compounds dissolved in DMEM media to obtain final conc. of 1, 0.5, 0.1, 0.01 mM). After 24 hours of incubation, 10 μl resazurin solution (0.015%) dissolved in PBS was added to the wells followed by incubation for 3 hours. Readings taken post 24 hours and 48 hours of sample addition. (Ex-570 nm, Em-590 nm), Controls: Blank media without cells, Media with cells, Readings for (Blank media without cells) subtracted from all groups, Readings normalized against (media with cells group—100%)
On the technique in general: Resazurin is reduced to fluorescent resorufin, in cell work by metabolically active cells.

The nature of series [4]: Photorheometry of CaproGlu binary formulations (365 nm UVA, 10 J·cm^−2). The class given is physicochemical. The settings on record: neat component of Table 3; steady state viscosity, shear rate 10 sec^−1. How it is done: Rheometry was carried out on an Anton Paar MCR 102 rheometer (Anton Paar, Singapore) with a custom photocuring setup as described previously (Djordjevic, I. et al., Biomaterials 2020, 260, 120215). A PP10 parallel plate stainless steel probe was used, with a 0.2 mm measuring gap. Steady State Viscosity was measured first (shear rate 10 sec^−1), followed by a dynamic oscillatory strain measurement during photocuring (UV ON at 30 seconds, off at 2 minutes 10 seconds, 1% shear, frequency 10 Hz, amplitude 1%), then an Amplitude Sweep (shear 1-1000-%, angular frequency 10 rad-sec^−1). In reporting of G′ and G″, a smoothing function was applied. The UV lamp used was a Thor Labs 365 nm SOLIS High-Power LED connected to a DC2200 LED Driver set to constant current mode. […]
Covalent crosslinking was monitored via complex shear modulus (G*), which was measured on a custom photorheometer fitted with a narrow-band 365 nm UV diode and normal-force load cell. […] Dynamic viscosity, G′ (storage modulus), G″ (loss modulus), and normal force (caused by expansion/contraction of polymer matrix) were continually monitored and subsequently analysed for yield stress/strain with an amplitude sweep. Functional groups were qualitatively assessed before and after curing via ATR-FTIR spectroscopy to observe consumption. […]

`Cc1cc(C)c(C(=O)P(=O)(c2ccccc2)c2ccccc2)c(C)c1` [TPO, Diphenyl(2,4,6-trimethylbenzoyl)phosphine oxide] came in with a molar absorption coefficient in series [1] (@ 381 nm) of 520 cm^−1M^−1. The “stability under indoor lighting” value in series [2] is “activated under indoor light; also recorded: unstable and prematurely crosslinked under fluorescent lights and white LED emitters”.
Turning to `OCc1ccc(C2(C(F)(F)F)N=N2)cc1` [DzOH, 4-[3-(Trifluoromethyl)-3H-diazirin-3-yl]benzyl alcohol], the Cell viability entry in series [3] was “not significantly different from control”.
In the case of `O=C(O)c1ccc(C2(C(F)(F)F)N=N2)cc1` [DzCOOH, 4-[3-(Trifluoromethyl)-3H-diazirin-3-yl]benzoic acid], the “absorbance above 400 nm” value in series [1] (previous UV-Vis studies) is recorded as “does not have an absorbance above 400 nm”.
With `O=C(CCS)OCC(COC(=O)CCS)(COC(=O)CCS)COC(=O)CCS` [PTHT, pentaerythritol tetrakis 3-mercaptopropionate], the viscosity result in series [4] was “[drawing 17] PTHT, Mw = 488.66 g · mol^-1, viscosity = 667 ± 49 mPa · s mPa·s”.
